According to patent publication US20160250253A1, “STRONTIUM-CONTAINING COMPLEXES FOR TREATING GASTROESOPHAGEAL REFLUX AND BARRETT'S ESOPHAGUS” (priority 2013, published 2016):

How the values were obtained:
[1] = tested on: Helicobacter pylori; conditions: cited from earlier work
[2] = tested on: esophageal cancer cells (TE-2); conditions: cited from earlier work
[3] = tested on: cancer cell lines; conditions: series of cancer cell lines; cited from earlier work
[4] = tested on: ulcer; conditions: cited from earlier work
[5] = tested on: acid-induced pain; test: Double blind study of glycolic acid induced pain on the forearm; format: in vivo, human; conditions: 25% glycolic acid with or without 250 millimolar gallic acid, topical on forearm, pain rated 0-4 every minute for 10 minutes
Protocol: Briefly, in a double blind study, 25% glycolic acid solutions with or without 250 millimolar of gallic acid were applied to an 2×8 inch area of the forearm of the study participants. The pain level was assessed at time of application and every minute thereafter for 10 minutes. Study participants rated the pain levels on a 0-4 scale where 0 was no pain; 1 was slight pain; 2 was mild pain; 3 was moderate pain; and 4 was unbearable pain.

[6] = biological target: KCa 3.1 (Homo sapiens, UniProt O15554); conditions: cited from earlier work
[7] = tested on: TCN activation by highly acidic chemical peels; conditions: topically applied, 70% glycolic acid, pH 0.6 on the skin, previous studies; cited from earlier work
[8] = tested on: TCN activation by highly acidic chemical peels; test: Burning pain from 70% glycolic acid, pH 0.6, applied to the skin; format: in vivo, human; conditions: strontium mixed with 70% glycolic acid
Protocol: Nociceptors also have a CaSR that inhibits nociceptor activation when the extracellular concentration of calcium is raised above normal, or if a similar concentration of strontium is administered. […] When strontium is mixed with the acid, burning pain and stinging is suppressed by 80% or more so that any remaining sensory irritation is not bothersome.

[9] = tested on: Type C nociceptors; test: Substance P release by Type C nociceptors, unpublished animal studies; format: in vivo
Source text: As mentioned above, acid from the stomach activates many pathways that trigger pain and inflammation such as the release of substance P, neurokinin A, and CGRP. […] While the precise molecular mechanism by which strontium inhibits substance P release is unknown, it is believed that the release of substance P, neurokinin A and CGRP occur together and by the same or similar trigger mechanism.

[10] = tested on: CICR pathway; conditions: cited from earlier work
[11] = tested on: burning pain due to 1% lactic acid; test: Burning pain from 1% lactic acid instilled on the conjunctiva of the eye; format: in vivo; conditions: 1% lactic acid on the conjunctiva, pilot studies in humans
[12] = tested on: synaptotagmin-1; conditions: strontium substitutes for calcium; cited from earlier work
[13] = oral, 680 mg of elemental strontium per day; cited from earlier work
[14] = tested on: histamine-induced itching; conditions: topical; cited from earlier work
[15] = tested on: pain of sore throat; test: Sore throat pain after gargling; format: in vivo; conditions: within several minutes after gargling, clinical observations
Source text: Since acidic material from the stomach is what causes the burning pain and inflammation in GER, it is hypothesized that strontium would be effective in treating GER.

O=C(O)c1cc(O)c(O)c(O)c1 [gallic acid, 3,4,5-trihydroxybenzoic acid]
H. pylori growth [1]: inhibition of H. pylori growth | apoptosis [2]: induced apoptosis | cell proliferation [3]: significant inhibition of cell proliferation | ulcer-preventing properties [4]: ulcer-preventing properties | acid induced pain [5]: effective in reducing or preventing the acid induced pain | block of KCa 3.1 [6]: does not block

O=C(O)C=Cc1ccccc1 [cinnamic acid]
H. pylori growth [1]: inhibition of H. pylori growth | ulcer-preventing properties [4]: ulcer-preventing properties

[Sr+2] [strontium]
intense burning pain [7]: virtually abolish | suppression of burning pain and stinging [8]: ≥ 80% | substance P release [9]: inhibit substance P release | ability to induce CICR relative to calcium [10]: over a hundred-fold less active than calcium | concentration in the ER relative to calcium ([10]; greater than calcium): more than 150% | burning pain [11]: inhibit burning pain | reduction of amplitude of synchronous neurotransmitter release [12]: > 90% | fraction absorbed by the GI tract into the blood [13]: approximately 25% | injected histamine-induced itching [14]: significantly inhibited

[Cl-].[Cl-].[Sr+2] [strontium chloride solution, strontium chloride]
pain of sore throat [15]: greatly relieved, if not eliminated

N#Cc1c(N(CC(=O)[O-])CC(=O)[O-])sc(C(=O)[O-])c1CC(=O)[O-].[Sr+2].[Sr+2] [strontium ranelate]
fraction absorbed by the GI tract into the blood [13]: approximately 25%
